According to PubChem BioAssay AID1919009 (Molecular Pharmacology Branch, DTP, NCI, 2023):

Tested on: K24384-001-R-PDC complex spheroid growth
Assay: Anticancer human tumor K24384-001-R-PDC patient-derived pancreatic adenocarcinoma cell line growth inhibition [AhR]
Conditions: for IC50: curve of first compound; for viability, T/C: stronger effect = lower value
Text: Multicellular complex tumor spheroid response to aryl hydrocarbon receptor antagonists in combination with a variety of drugs and investigational agents in selected tumor cell lines
The current study was undertaken to assess response to aryl hydrocarbon receptor antagonists in combination with standard-of-care drugs and investigational agents in solid tumor complex spheroid models. Complex spheroids include a stromal component modeled by human endothelial cells (HUVEC) and fibroblasts modeled by human mesenchymal stem cells (MSCs). The concentration ranges selected for each drug and investigational agent were based upon clinically achievable concentrations if the clinical Cmax of the agent was known.
Compounds. The drugs and investigational agents: BAY 2416964 (NSC825713), GNF351 (NSC835774), CH-223191 (NSC835775), CPI-455 (NSC825282), aza-TdCyd (NSC777586), decitabine (NSC127716), belinostat (NSC758774), entinostat (NSC756642), pevonedistat (NSC761192), tazemetostat (NSC777109), talazoparib (NSC765396), olaparib (NSC753686), selinexor (NSC780203), nedisertib (M3814, NSC802822), bortezomib (NSC756655), venetoclax (NSC766270), doxorubicin (NSC123127), elimusertib (BAY189344, NSC800525), ceralasertib (AZD6738, NSC777638), TAK-243 (NSC785004), alisertib (NSC759677), etoposide (NSC141540), topotecan (NSC609699), eribulin (NSC707389), gemcitabine (NSC613327), carboplatin (NSC241240), cisplatin (NSC119875), and SN-38 (NSC673596) were obtained from the National Cancer Institute (NCI) Developmental Therapeutics Program Chemical Repository (32). The FDA-approved anticancer drug set is available from the Developmental Therapeutics Program at https://dtp.cancer.gov/organization/dscb/obtaining/available plates.htm. […] The stock solutions were prepared in dimethyl sulfoxide (DMSO, Sigma-Aldrich, St. Louis, MO, cat. D2650), except for the platinum compounds which were prepared in saline (Quality Biological, Gaithersburg, MD, cat. 114-055-101), at 800-fold the tested concentration and stored at -70 degrees C prior to their use. All drugs and investigational agents were tested over a range starting from a high concentration at or near the clinical Cmax and decreasing in half-log increments. If the clinical Cmax for an agent had not been determined, the highest concentration tested was 10 microM (Table 1).
Cell Culture. All cells were maintained in an incubator at 37 degrees C and 5% CO2 with 95% humidity. The PDC lines were cultured according to standard operating procedures established by the NCI PDMR (https://pdmr.cancer.gov). Briefly, all PDCs were thawed and cultured in Matrigel-coated flasks prepared with a working solution of 1X Ham's F-12 nutrient mix, without supplementation (Invitrogen, Waltham, MA, cat. 11765054), 100 U/mL penicillin-streptomycin (Invitrogen, cat. 15140122), and 2.5% Matrigel (Corning Inc., Corning, NY, cat. 354248) for the first three passages. All PDCs were cultured in complete DMEM/F-12 media containing advanced DMEM/F-12 (Invitrogen, cat. 12634028), 4.9% defined fetal bovine serum, heat inactivated (HyClone Laboratories Inc., Logan, UT, cat. SH30070.03HI), 389 ng/mL hydrocortisone (Sigma-Aldrich, cat. H4001), 9.7 ng/mL human EGF recombinant protein (Invitrogen, cat. PHG0313), 23.4 microg/mL adenine (Sigma-Aldrich, cat. A2786), 97.3 U/mL penicillin-streptomycin (Invitrogen, cat. 15140122), 1.9 mM L-glutamine (Invitrogen, cat. 25030081), and 9.7 microM Y-27632 dihydrochloride (Tocris Bioscience, Bristol, United Kingdom, cat. 1254). The PDCs were cultured in complete DMEM/F12 media without 10 microM Y-27632 dihydrochloride for at least two passages prior to the screen. The established cell lines NCI-H1341 and […] were cultured in DMEM/F-12, HEPES (Invitrogen, cat. 11330032), 5% defined fetal bovine serum (HyClone Laboratories Inc., cat. SH30070.03), ITS premix universal culture supplement [insulin (5 microg/mL), transferrin (5 microg/mL), and selenious acid (5 ng/mL)] […]

[1] = second compound 0.1 µM, first compound 0.0316 µM
[2] = second compound 0.1 µM, first compound 0.1 µM
[3] = second compound 0.1 µM, first compound 0.316 µM
[4] = second compound 0.1 µM, first compound 1 µM
[5] = second compound 0.1 µM, first compound 3.16 µM
[6] = second compound 0.1 µM, first compound 10 µM
[7] = second compound 0.316 µM, first compound 0.0316 µM
[8] = second compound 0.316 µM, first compound 0.1 µM
[9] = second compound 0.316 µM, first compound 0.316 µM
[10] = second compound 0.316 µM, first compound 1 µM
[11] = second compound 0.316 µM, first compound 3.16 µM
[12] = second compound 0.316 µM, first compound 10 µM
[13] = second compound 1 µM, first compound 0.0316 µM
[14] = second compound 1 µM, first compound 0.1 µM
[15] = second compound 1 µM, first compound 0.316 µM
[16] = second compound 1 µM, first compound 1 µM
[17] = second compound 1 µM, first compound 3.16 µM
[18] = second compound 1 µM, first compound 10 µM
[19] = second compound 3.16 µM, first compound 0.0316 µM
[20] = second compound 3.16 µM, first compound 0.1 µM
[21] = second compound 3.16 µM, first compound 0.316 µM
[22] = second compound 3.16 µM, first compound 1 µM
[23] = second compound 3.16 µM, first compound 3.16 µM
[24] = second compound 3.16 µM, first compound 10 µM
[25] = second compound 10 µM, first compound 0.0316 µM
[26] = second compound 10 µM, first compound 0.1 µM
[27] = second compound 10 µM, first compound 0.316 µM
[28] = second compound 10 µM, first compound 1 µM
[29] = second compound 10 µM, first compound 3.16 µM
[30] = second compound 10 µM, first compound 10 µM
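Throughout, for viability, T/C: percent of DMSO vehicle-treated spheroid viability set as 100%.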

COc1cc(C2c3cc4c(cc3C(OC3OC5COC(C)OC5C(O)C3O)C3COC(=O)C23)OCO4)cc(OC)c1O (stereo not given) + CC(CO)NC(=O)c1cc(-c2ccc(Cl)cc2)nn(-c2cnn(C)c2)c1=O
IC50 (second compound 0.1 µM): 1710 nM
IC50 (second compound 0.316 µM): 921 nM
IC50 (second compound 1 µM): 1170 nM
IC50 (second compound 3.16 µM): 764 nM
IC50 (second compound 10 µM): 611 nM
viability, T/C [1]: 96.8%
viability, T/C [2]: 102%
viability, T/C [3]: 75.9%
viability, T/C [4]: 60.8%
viability, T/C [5]: 39.8%
viability, T/C [6]: 33.5%
viability, T/C [7]: 89.5%
viability, T/C [8]: 93.4%
viability, T/C [9]: 78.1%
viability, T/C [10]: 48.4%
viability, T/C [11]: 30%
viability, T/C [12]: 28.5%
viability, T/C [13]: 95.9%
viability, T/C [14]: 96.4%
viability, T/C [15]: 78.1%
viability, T/C [16]: 52.7%
viability, T/C [17]: 36%
viability, T/C [18]: 30.8%
viability, T/C [19]: 74.6%
viability, T/C [20]: 82.4%
viability, T/C [21]: 80.4%
viability, T/C [22]: 41.2%
viability, T/C [23]: 33.4%
viability, T/C [24]: 29.6%
viability, T/C [25]: 70.8%
viability, T/C [26]: 72.9%
viability, T/C [27]: 57.2%
viability, T/C [28]: 44.7%
viability, T/C [29]: 34.1%
viability, T/C [30]: 33.7%

Nc1ccn(C2OC(CO)C(O)C2(F)F)c(=O)n1 (stereo not given) + CC(CO)NC(=O)c1cc(-c2ccc(Cl)cc2)nn(-c2cnn(C)c2)c1=O
IC50 (second compound 0.1 µM): 570 nM
IC50 (second compound 0.316 µM): 666 nM
IC50 (second compound 1 µM): 767 nM
IC50 (second compound 3.16 µM): 841 nM
IC50 (second compound 10 µM): 1170 nM
viability, T/C [1]: 81.9%
viability, T/C [2]: 90.8%
viability, T/C [3]: 65.8%
viability, T/C [4]: 35.6%
viability, T/C [5]: 31.8%
viability, T/C [6]: 28.1%
viability, T/C [7]: 92.2%
viability, T/C [8]: 92.5%
viability, T/C [9]: 70.7%
viability, T/C [10]: 38.6%
viability, T/C [11]: 30.7%
viability, T/C [12]: 27%
viability, T/C [13]: 90.9%
viability, T/C [14]: 77.4%
viability, T/C [15]: 69.8%
viability, T/C [16]: 45.3%
viability, T/C [17]: 26.7%
viability, T/C [18]: 26.4%
viability, T/C [19]: 77.5%
viability, T/C [20]: 79.8%
viability, T/C [21]: 72.4%
viability, T/C [22]: 45.6%
viability, T/C [23]: 30.1%
viability, T/C [24]: 24.8%
viability, T/C [25]: 82.9%
viability, T/C [26]: 80.5%
viability, T/C [27]: 81.6%
viability, T/C [28]: 52.3%
viability, T/C [29]: 36%
viability, T/C [30]: 33.9%
